Experimental data reported in US20100041662A1, “Heterocyclic compounds as antiinflammatory agents” (priority 2006, published 2010).

Experiments:
[1] = tested on: Phospho-PKB in U87MG cells; assay: Detection of phospho-PKB in U87MG cells by ELISA; type: cell-based; conditions: Homo sapiens, U-87 MG; assay not given; follows the PI3K/DNA-PK/phospho-PKB U87MG methods
Method: U87MG cells (human glioblastoma, ATCC No. HTB-14) are trypsinized, counted in a CASY cell counter (Schärffe systems, Göttingen, Germany), diluted in fresh complete DMEM high glucose medium to load, per well, 150 μL cell suspension containing 4×10^4 cells, and test plates incubated for 18 hours. In parallel, 50 μL of coating antibody, at the desired concentration in PBS/O is loaded in each well of the ELISA plates, and plates are kept for 2 hours at room temperature. This ELISA assays is performed in black flat-bottom 96-well plates (Microtest™, Falcon Becton-Dickinson, Ref.: 353941) sealed with Plate Sealers (Costar-Corning, Ref: 3095). Medium in plates is discarded and replaced by complete DMEM high glucose medium containing either 0.1% DMSO or 0.1% inhibitor at titers (7) between […] in DMSO. After 30 minutes of contact, the medium is quickly removed by aspiration, plates are then placed on ice and immediately cells lyzed with 70 μL of Lysis buffer. In parallel, the 96 wells plates prepared with the coating antibody (1/250 diluted (in PBS/O) Anti-Akt1 C-20, goat, Santa-Cruz-1618, Santa Cruz Biotechnology, Inc., Santa Cruz, Calif., USA) are washed 3 times for 1 minute with PBS/O containing 0.05% Tween 20 and 0.1% Top-Blocks (derivative of gelatine that blocks unspecific binding sites on surfaces; Sigma-Aldrich, Fluka, Buchs, Switzerland, Ref.: 37766), and remaining protein binding sites blocked to prevent non-specific interactions with 200 μL of PBS containing 3% Top Block®, for 2 hours at room temperature. Well content is replaced with 50 μL of samples from treated cells, and plates are incubated for 3 hours at 4° C. The ELISA assays are always done in parallel with the following controls, in 6 replicates: U87MG (untreated control) or Lysis buffer alone (LB). […] The luminescence is read immediately on a Top-Count NXT (Packard Bioscience) luminometer.

[2] = tested on: dimethylnitrosamine induced liver fibrosis; conditions: cited from earlier work
[3] = given therapeutically to rat, 3 weeks treatment

Compound | IC50 [1] [nM] | side effects ([2]; during the 3 weeks treatment) | inhibited extracellular matrix deposition [2, 3] [%] | prevented death rate [2, 3] [%]
OCC1CCC(Nc2ccc3ncc(-c4ccc(-n5cccn5)cc4)n3n2)CC1 (stereo not drawn) [Example 1.9, {4-[3-(4-Pyrazol-1-yl-phenyl)-imidazo[1,2-b]pyridazin-6-ylamino]-cyclohexyl}-methanol] | 753 | – | – | –
OC1CCC(Nc2ccc3ncc(-c4ccc(-n5cncn5)cc4)n3n2)CC1 (stereo not drawn) [Example 1.8, 4-[3-(4-[1,2,4]Triazol-1-yl-phenyl)-imidazo[1,2-b]pyridazin-6-ylamino]-cyclohexanol] | 666 | – | – | –
c1ccc(-c2cc(-c3cn[nH]c3-c3ccccn3)ccn2)cc1 [GW6604] | – | no obvious side effects | 60 | 40
OC1CCC(Nc2ccc3ncc(-c4ccc(-n5cccn5)cc4)n3n2)CC1 (stereo not drawn) [Example 1.5, 4-[3-(4-Pyrazol-1-yl-phenyl)-imidazo[1,2-b]pyridazin-6-ylamino]-cyclohexanol] | 106 | – | – | –
